Results published in publication PMC9511441, “Semisynthetic teicoplanin derivatives with dual antimicrobial activity against SARS-CoV-2 and multiresistant bacteria” (Scientific Reports, 2022).
Values after ≈ are worked out from the molar mass of the structure shown. Read-outs that look alike come from different tables or passages of the source.

Legend:
[1] = tested on: Acinetobacter baumannii ATCC BAA1605; assay: MIC against Gram-negative strain; conditions: Acinetobacter baumannii, ATCCBAA1605
[2] = molecular target: T1, human recombinant cathepsin L (Homo sapiens, UniProt P07711); assay: biochemical; format: biochemical; conditions: read-out: Cathepsin L IC50; pH 5.5, Z-Phe-Arg-AMC substrate
T1 construct: made in house; host or cells: Escherichia coli
T1 sequence (P07711 114-333): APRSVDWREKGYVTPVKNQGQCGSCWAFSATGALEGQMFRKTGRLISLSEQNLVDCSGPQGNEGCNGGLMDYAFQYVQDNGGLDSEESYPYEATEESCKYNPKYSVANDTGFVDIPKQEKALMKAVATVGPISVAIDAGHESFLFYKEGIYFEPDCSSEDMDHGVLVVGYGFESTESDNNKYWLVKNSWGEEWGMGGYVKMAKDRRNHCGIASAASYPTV

S. aureus ATCC29213 = assay: Fluorescent competition assay, release of fluorescent vancomycin; conditions: cells saturated with FL-VAN, Fig. 7 left panel
S. epidermidis = assay: microbe, parasite or virus in culture; format: cell-based; conditions: Staphylococcus epidermidis
E. faecium = assay: microbe, parasite or virus in culture; format: cell-based; conditions: Enterococcus faecium
[3] = tested on: Escherichia coli ATCC 25218; assay: MIC against Gram-negative strain; conditions: ATCC25218
[4] = tested on: Klebsiella pneumoniae ST258 clone K 160/09; assay: MIC against Gram-negative strain; conditions: Klebsiella pneumoniae
VeroE6 cells = assay: Cytotoxicity in mock-infected VeroE6 cells (XTT); format: cell-based, African green monkey; conditions: mock-infected Vero E6 cells, three days, XTT
Calu-3 cells = assay: Cytotoxicity in mock-infected Calu-3 cells (XTT); conditions: read-out: CC50, Calu-3 cells, three days
S. haemolyticus = assay: MIC, broth microdilution; format: cell-based; conditions: Staphylococcus haemolyticus
S. aureus = assay: MIC, broth microdilution; format: cell-based; conditions: Staphylococcus aureus
E. faecalis = assay: MIC, broth microdilution; format: cell-based; conditions: Enterococcus faecalis
S.pyogenes = assay: MIC, broth microdilution; format: cell-based; conditions: Streptococcus pyogenes
[5] = tested on: Pseudomonas aeruginosa ATCC 27853; assay: MIC against Gram-negative strain; conditions: ATCC27853
HEL cells = assay: Cytotoxicity in mock-infected HEL cells (MTS); format: cell-based, human; conditions: mock-infected HEL cells, MTS, mean of 2–3 tests

With `CC(=O)N[C@H]1[C@H](O[C@@H]2c3ccc(c(Cl)c3)Oc3cc4cc(c3O)Oc3ccc(cc3Cl)C[C@H]3NC(=O)[C@H](NC(=O)c5cc(OCCCSCCNC(=N)N)c(OCCCSCCNC(=N)N)c(OCCCSCCNC(=N)N)c5)c5ccc(O)c(c5)Oc5cc(O)cc(c5)[C@H](NC3=O)C(=O)N[C@H]4C(=O)N[C@H]3C(=O)N[C@@H]2C(=O)N[C@H](C(=O)O)c2cc(O)cc(O)c2-c2cc3ccc2O)O[C@H](CO)[C@@H](O)[C@@H]1O` [Compound 7] the MIC [1] was 128 µg/mL (≈ 63 µM), the IC50 [2] was 4.5 ± 1 µM and the “Outcompeting fluorescent vancomycin from S. aureus (in words)” value (S. aureus ATCC29213) was “no effect”. For the same molecule, the MIC (S. epidermidis; read-out: Average MIC value, S. epidermidis mecA, 6 strains) was 0.25 µg/mL (≈ 0.123 µM), the MIC (S. epidermidis; read-out: MIC value, S.epidermidis ORI_R1, mecA) was 0.25 µg/mL (≈ 0.123 µM) and the MIC (S. epidermidis; read-out: MIC value, S.epidermidis ORI_R2, mecA) was 0.25 µg/mL (≈ 0.123 µM). For the same molecule, the MIC (S. epidermidis; read-out: MIC value, S.epidermidis ORI_R3, mecA) was 0.25 µg/mL (≈ 0.123 µM), the MIC (S. epidermidis; read-out: MIC value, S.epidermidis ORI_R4, mecA) was 0.25 µg/mL (≈ 0.123 µM) and the MIC (S. epidermidis; read-out: MIC value, S.epidermidis TEI_R1, mecA) was 0.25 µg/mL (≈ 0.123 µM). The MIC (S. epidermidis; read-out: MIC value, S.epidermidis TEI_R2, mecA) was 0.25 µg/mL (≈ 0.123 µM), the MIC (E. faecium; read-out: Average MIC value, E. faecium VAN^R,TEI^R/VanA, 8 strains) was greater than 8 µg/mL and the MIC (E. faecium; read-out: Average MIC value, E. faecium VAN^S, TEI^S, 1 strain) was 2 µg/mL (≈ 0.984 µM). The MIC (E. faecium; read-out: MIC value, E.faecium E335, VAN,TEI,LNZ/VanA) was greater than 8 µg/mL, the MIC (E. faecium; read-out: MIC value, E.faecium E355, VAN,TEI,LNZ/VanA) was greater than 8 µg/mL and the MIC (E. faecium; read-out: MIC value, E.faecium E832, VAN,TEI,LNZ/VanA) was greater than 8 µg/mL. For the same molecule, the MIC (E. faecium; read-out: MIC value, E.faecium E854, VAN,TEI,LNZ/VanA) was greater than 8 µg/mL, the MIC (E. faecium; read-out: MIC value, E.faecium E859, VAN,TEI,LNZ/VanA) was greater than 8 µg/mL and the MIC (E. faecium; read-out: MIC value, E.faecium E1114, VAN,TEI,LNZ/VanA) was greater than 8 µg/mL. The MIC (E. faecium; read-out: MIC value, E.faecium E1131, VAN,TEI,LNZ/VanA) was greater than 8 µg/mL, the MIC (E. faecium; read-out: MIC value, E.faecium E1132, VAN,TEI,LNZ/VanA) was greater than 8 µg/mL and the MIC (E. faecium; read-out: MIC value, E.faecium TX0016) was 2 µg/mL (≈ 0.984 µM). It also gave an MIC [3] of 256 µg/mL (≈ 126 µM), an MIC [4] of 512 µg/mL (≈ 252 µM) and a CC50 (VeroE6 cells) greater than 100 µM. The CC50 (Calu-3 cells) was greater than 100 µM, the MIC (S. haemolyticus; S. haemolyticus mecA, 6 strains, read-out: Average MIC value) was 1.2 µg/mL (≈ 0.591 µM) and the MIC (S. haemolyticus; S.haemolyticus DALB_R1, mecA, read-out: MIC value) was 1 µg/mL (≈ 0.492 µM). The MIC (S. haemolyticus; S.haemolyticus DALB_R2, mecA, read-out: MIC value) was 1 µg/mL (≈ 0.492 µM), the MIC (S. haemolyticus; S.haemolyticus DALB_R3, mecA, read-out: MIC value) was 2 µg/mL (≈ 0.984 µM) and the MIC (S. haemolyticus; S.haemolyticus DALB_R4, mecA, read-out: MIC value) was 2 µg/mL (≈ 0.984 µM). It also gave an MIC (S. haemolyticus; S.haemolyticus DALB_R5, mecA, read-out: MIC value) of 0.5 µg/mL (≈ 0.246 µM), an MIC (S. haemolyticus; S.haemolyticus ORI_R1, mecA, read-out: MIC value) of 0.5 µg/mL (≈ 0.246 µM) and an MIC (S. aureus; ATCC 29213 / MSSA, read-out: MIC value, S. aureus ATCC29213, MSSA) of 0.5 µg/mL (≈ 0.246 µM). It also gave an MIC (S. aureus; MRSA / USA300, read-out: MIC value, S. aureus USA300, CA-MRSA) of 1 µg/mL (≈ 0.492 µM), an MIC (S. aureus; MRSA, read-out: Average MIC value, S. aureus CA-MRSA, 1 strain) of 1 µg/mL (≈ 0.492 µM) and an MIC (S. aureus; MRSA, read-out: Average MIC value, S. aureus MRSA, 7 strains) of 0.89 µg/mL (≈ 0.438 µM). For the same molecule, the MIC (S. aureus; MRSA, read-out: MIC value, S. aureus 73OL, MRSA) was 1 µg/mL (≈ 0.492 µM), the MIC (S. aureus; MRSA, read-out: MIC value, S. aureus 214OL, MRSA) was 1 µg/mL (≈ 0.492 µM) and the MIC (S. aureus; MRSA, read-out: MIC value, S. aureus 1041OL, MRSA) was 1 µg/mL (≈ 0.492 µM). The MIC (S. aureus; MRSA, read-out: MIC value, S. aureus A6918, MRSA) was 1 µg/mL (≈ 0.492 µM), the MIC (S. aureus; MRSA, read-out: MIC value, S. aureus A6919, MRSA) was 1 µg/mL (≈ 0.492 µM) and the MIC (S. aureus; MRSA, read-out: MIC value, S. aureus Mu50, MRSA) was 1 µg/mL (≈ 0.492 µM). For the same molecule, the MIC (S. aureus; MRSA, read-out: MIC value, S. aureus N315, MRSA) was 0.25 µg/mL (≈ 0.123 µM), the MIC (S. aureus; MSSA / NEWMAN, read-out: MIC value, S. aureus Newman, MSSA) was 1 µg/mL (≈ 0.492 µM) and the MIC (S. aureus; MSSA, read-out: Average MIC value, S. aureus MSSA, 4 strains) was 1.12 µg/mL (≈ 0.554 µM). For the same molecule, the MIC (S. aureus; MSSA, read-out: MIC value, S. aureus MSSA476, MSSA) was 2 µg/mL (≈ 0.984 µM), the MIC (S. aureus; MSSA, read-out: MIC value, S. aureus SA564, MSSA) was 1 µg/mL (≈ 0.492 µM) and the MIC (E. faecalis; read-out: Average MIC value, E. faecalis VAN^R,TEI^R/VanA, 1 strain) was greater than 8 µg/mL. For the same molecule, the MIC (E. faecalis; read-out: Average MIC value, E. faecalis VAN^S, TEI^S, 2 strains) was 2 µg/mL (≈ 0.984 µM), the MIC (E. faecalis; read-out: MIC value, E.faecalis JH2-2) was 2 µg/mL (≈ 0.984 µM) and the MIC (E. faecalis; read-out: MIC value, E.faecalis OG1RF) was 2 µg/mL (≈ 0.984 µM). It also gave an MIC (E. faecalis; read-out: MIC value, E.faecalis V583, VAN,TEI/VanA) greater than 8 µg/mL, an MIC (S.pyogenes; read-out: MIC value, S.pyogenes H232) of 0.25 µg/mL (≈ 0.123 µM) and an MIC (S.pyogenes; read-out: MIC value, S.pyogenes H550) of 0.25 µg/mL (≈ 0.123 µM). It also gave an MIC (S.pyogenes; read-out: MIC value, S.pyogenes H578) of 0.25 µg/mL (≈ 0.123 µM), an MIC [5] of 128 µg/mL (≈ 63 µM) and a CC50 (HEL cells) greater than 100 µM.
